{"source": "patent US20230041563A1", "about": "“N-(1,3,4-OXADIAZOL-2-YL)ARYLCARBOXAMIDES OR SALTS THEREOF, PREPARATION METHODS, HERBICIDAL COMPOSITIONS AND USES THEREOF” (priority 2018, published 2023)", "key": {"[1]": {"tested_on": "Indica rice (Huanghuazhan)", "assay": "Safety test of control experiments on rice", "format": "in vivo", "settings": "Dose 250 g a.i./ha", "source_text": "(§1) The activity level criteria for plant damage (i.e., growth control rate) are as follows: Comparative Experiments: [table]"}, "[2]": {"tested_on": "Japonica rice (Huaidao No. 5)", "assay": "Safety test of control experiments on rice", "format": "in vivo", "settings": "Dose 250 g a.i./ha", "source_text": "as §1"}, "Monochoria vaginalis": {"tested_on": "Monochoria vaginalis", "assay": "Transplanted rice safety evaluation and weed control effect evaluation in rice field", "format": "in vivo", "settings": "Table 7, dose 125 g a.i./ha, 14 days after treatment", "how_it_was_run": "(§2)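 Paddy-soil pots, seeds sown and flooded (0.5-1 cm, then 3-4 cm water); Sagittaria grown from tubers. WP or SC dilutions dripped on at 0.5-leaf stage (Sagittaria at primary leaf). Visual 0-5 scoring of weeds at 14 days, rice at 21 days.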"}, "Scirpus juncoides": {"tested_on": "Scirpus juncoides", "assay": "Transplanted rice safety evaluation and weed control effect evaluation in rice field", "format": "in vivo", "settings": "Table 7, dose 125 g a.i./ha, 14 days after treatment", "how_it_was_run": "as §2"}, "Echinochloa crusgali": {"tested_on": "Echinochloa crusgali", "assay": "Transplanted rice safety evaluation and weed control effect evaluation in rice field", "format": "in vivo", "settings": "Table 7, dose 125 g a.i./ha, 14 days after treatment", "how_it_was_run": "as §2"}, "[3]": {"tested_on": "gramineous weed (Echinochloa crusgali, Leptochloa chinensis or Digitaria sanguinalis)", "assay": "Post-emergence activity on gramineous weed, comparison between compounds", "format": "in vivo", "settings": "at low doses; versus Compound 1-2", "source_text": "Experiment on weeding effect in post-emergence stage: monocotyledonous and dicotyledonous weed seeds (Descurainia sophia, Capsella bursa-pastoris, Abutilon theophrasti, Galium aparine, Stellaria media, Lithospermum arvense, rorippa indica, Alopecurus aequalis, Beckmannia syzigachne, Sclerochloa dura, Phleum paniculatum, Bromus japonicus, Aegilops tauschii, Phalaris arundinacea, Amaranthus retroflexus, Chenopodiaceae, Commelina communis, Sonchus arvensis, convolvulus arvensis, Cirsium setosum, Solanum nigrum, Acalypha australis, Digitaria sanguinalis, Echinochloa crusgalli, Setaria viridis, Setaria glauca, Leptochloa chinensis, Monochoria vaginalis, Sagittaria trifolia, Scirpus juncoides, Cyperus rotundus, Cyperus iria, Cyperus difformis, Fimbristylis, Portulaca oleracea, Xanthium sibiricum, Pharbitis nil) and major crop seeds (wheat, corn, rice, soybean, cotton, oilseed rape, millet, sorghum, potato, sesame, ricinus) were placed in plastic pots filled with soil, then covered with 0.5-2 cm of soil, allowed to grow in a good greenhouse environment. After 2 weeks of sowing, the test plants were treated in the 2 to 3 leaf stage. […] After the application, the plants were cultured for 3 weeks in the greenhouse, and then the experimental results of the weeding were counted. […]"}, "Abutilon theophrasti [4]": {"tested_on": "Abutilon theophrasti", "assay": "Weeding effect in post-emergence stage (greenhouse pot spray)", "format": "in vivo", "how_it_was_run": "(§3)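 Greenhouse pot plants at the 2–3 leaf stage (2 weeks after sowing) were sprayed with compound in acetone with Tween 80 and methyl oleate EC synergist (1.5 L/ha) at 500, 250, 125, 60 or 15 g a.i./ha. Fresh-weight growth control was scored 3 weeks later, averaged over three replicates.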"}, "Digitaria sanguinalis [5]": {"tested_on": "Digitaria sanguinalis", "assay": "Weeding effect in post-emergence stage (greenhouse pot spray)", "format": "in vivo", "how_it_was_run": "as §3"}, "Echinochloa crusgalli": {"tested_on": "Echinochloa crusgalli", "assay": "Weeding effect in post-emergence stage (greenhouse pot spray)", "format": "in vivo", "how_it_was_run": "as §3"}, "Setaria viridis": {"tested_on": "Setaria viridis", "assay": "Weeding effect in post-emergence stage (greenhouse pot spray)", "format": "in vivo", "settings": "Table 3, dose 60 g a.i./ha", "how_it_was_run": "as §3"}, "[6]": {"tested_on": "rice and Echinochloa crusgali", "assay": "Herbicide selection index between rice and Echinochloa crusgali", "format": "in vivo", "settings": "average dose causing 10% phytotoxicity to rice divided by average dose causing 90% control efficiency to Echinochloa crusgali"}, "Rice": {"tested_on": "Rice", "assay": "Transplanted rice safety evaluation and weed control effect evaluation in rice field", "format": "in vivo, rice (japonica rice/Indica rice)", "settings": "Table 7, dose 125 g a.i./ha, 21 days after treatment", "how_it_was_run": "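Japonica and Indica rice at 3-leaf stage transplanted into flooded paddy soil (3-4 cm water). Compound applied 5 days after transplanting. Weeds scored visually on 0-5 scale at 14 days; rice injury at 21 days.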"}, "Rice (Longyang 16)": {"tested_on": "Rice (Longyang 16)", "assay": "Post-emergence control experiment of R configuration compound activity (directly sowed rice 1.5-2 leaf stage, 25 days)", "format": "in vivo", "description": "(§4) Experiment on weeding effect in post-emergence stage: after 3-4 weeks of sowing, the test plants were treated in the 1.5-2 leaf stage of the directly sowed rice Longyang 16, and the 4-5 leaf stage of weeds. After the application of the compounds of the present invention, the plants were cultured for 25 days in the greenhouse, and then the experimental results of the weeding were counted.\nLongyang 16 is a representative and important long-grain fragrant rice in Northeast China. Long-grain fragrant rice is more sensitive to herbicides, especially to HPPD herbicides such as Mesotrione, Benzobicylon and the like, which are prone to causing phytotoxicity."}, "Green Setaria viridis": {"tested_on": "Green Setaria viridis", "assay": "Post-emergence control experiment of R configuration compound activity (weeds 4-5 leaf stage, 25 days)", "format": "in vivo", "settings": "Setaria viridis, post-emergence", "description": "as §4"}, "Abutilon theophrasti [7]": {"tested_on": "Abutilon theophrasti", "assay": "Post-emergence control experiment of R configuration compound activity (weeds 4-5 leaf stage, 25 days)", "format": "in vivo", "settings": "Abutilon theophrasti, post-emergence; read-out: Ablation theophrasti (30 g a.i./ha) inhibition rate", "description": "as §4"}, "Leptochloa chinensis": {"tested_on": "Leptochloa chinensis", "assay": "Post-emergence control experiment of R configuration compound activity (weeds 4-5 leaf stage, 25 days)", "format": "in vivo", "settings": "Dinebra chinensis, post-emergence", "description": "as §4"}, "Digitaria sanguinalis [8]": {"tested_on": "Digitaria sanguinalis", "assay": "Post-emergence control experiment of R configuration compound activity (weeds 4-5 leaf stage, 25 days)", "format": "in vivo", "settings": "Digitaria sanguinalis, post-emergence; read-out: Digitaria sanguinalis (30 g a.i./ha) inhibition rate", "description": "as §4"}, "Amaranthus retroflexus": {"tested_on": "Amaranthus retroflexus", "assay": "Weeding effect in post-emergence stage (greenhouse pot spray)", "format": "in vivo", "how_it_was_run": "as §3"}, "Stellaria media": {"tested_on": "Stellaria media", "assay": "Weeding effect in post-emergence stage (greenhouse pot spray)", "format": "in vivo", "how_it_was_run": "as §3"}}}
{"compound": "CCC[S+]([O-])c1c(C(F)(F)F)ccc(C(=O)Nc2nnc(C)o2)c1F", "note": "(stereo not drawn) [Compound 1-8]", "values": [{"measurement": "Indica rice (Huanghuazhan) (plant damage level)", "setting": "[1]", "value": "0 (Level 0: growth control rate is less than 5%)"}, {"measurement": "Japonica rice (Huaidao No. 5) (plant damage level)", "setting": "[2]", "value": "0 (Level 0: growth control rate is less than 5%)"}, {"measurement": "Monochoria vaginalis (activity level)", "setting": "Monochoria vaginalis", "value": "5 (Level 5: growth control rate is above 85%)"}, {"measurement": "Scirpus juncoides (activity level)", "setting": "Scirpus juncoides", "value": "5 (Level 5: growth control rate is above 85%)"}, {"measurement": "Echinochloa crusgali (activity level)", "setting": "Echinochloa crusgali", "value": "5 (Level 5: growth control rate is above 85%)"}, {"measurement": "activity on the gramineous weed relative to Compound 1-2", "setting": "[3]", "value": "much more higher"}, {"measurement": "Abutilion theophrasti (activity level)", "setting": "Abutilon theophrasti [4]; Table 2, dose 60 g a.i./ha", "value": "5 (Level 5: growth control rate is above 85%)"}, {"measurement": "Abutilion theophrasti (activity level)", "setting": "Abutilon theophrasti [4]; Table 2, dose 125 g a.i./ha", "value": "5 (Level 5: growth control rate is above 85%)"}, {"measurement": "Abutilon theophrasti (activity level)", "setting": "Abutilon theophrasti [4]; Table 3, dose 60 g a.i./ha", "value": "5 (Level 5: growth control rate is above 85%)"}, {"measurement": "Digitaria sanguinalis (activity level)", "setting": "Digitaria sanguinalis [5]; Table 2, dose 60 g a.i./ha", "value": "5 (Level 5: growth control rate is above 85%)"}, {"measurement": "Digitaria sanguinalis (activity level)", "setting": "Digitaria sanguinalis [5]; Table 2, dose 125 g a.i./ha", "value": "5 (Level 5: growth control rate is above 85%)"}, {"measurement": "Digitaria sanguinahs (activity level)", "setting": "Digitaria sanguinalis [5]; Table 3, dose 60 g a.i./ha", "value": "5 (Level 5: growth control rate is above 85%)"}, {"measurement": "Echinochloa crusgah (activity level)", "setting": "Echinochloa crusgalli; Table 2, dose 60 g a.i./ha", "value": "5 (Level 5: growth control rate is above 85%)"}, {"measurement": "Echinochloa crusgah (activity level)", "setting": "Echinochloa crusgalli; Table 2, dose 125 g a.i./ha", "value": "5 (Level 5: growth control rate is above 85%)"}, {"measurement": "Echinochloa crusgali (activity level)", "setting": "Echinochloa crusgalli; Table 3, dose 60 g a.i./ha", "value": "5 (Level 5: growth control rate is above 85%)"}, {"measurement": "Setaria viridis (activity level)", "setting": "Setaria viridis", "value": "5 (Level 5: growth control rate is above 85%)"}, {"measurement": "Selection index between rice and Echinochloa crusgali", "setting": "[6]", "value": ">5"}, {"measurement": "Rice (safety level)", "setting": "Rice", "value": "0 (Level 0: growth control rate is less than 5%)"}, {"measurement": "Rice (Longyang 16) (250 g a.i./ha) inhibition rate", "setting": "Rice (Longyang 16); 250 g a.i./ha", "value": 5, "unit": "%"}, {"measurement": "Rice (Longyang 16) (500 g a.i./ha) inhibition rate", "setting": "Rice (Longyang 16); 500 g a.i./ha", "value": 15, "unit": "%"}, {"measurement": "inhibition at 30 g/ha", "setting": "Green Setaria viridis; read-out: Green Setaria viridis (30 g a.i./ha) inhibition rate", "value": 10, "unit": "%"}, {"measurement": "inhibition at 60 g/ha", "setting": "Green Setaria viridis; read-out: Green Setaria viridis (60 g a.i./ha) inhibition rate", "value": 90, "unit": "%"}, {"measurement": "inhibition at 30 g/ha", "setting": "Abutilon theophrasti [7]", "value": 90, "unit": "%"}, {"measurement": "inhibition at 60 g/ha", "setting": "Leptochloa chinensis; read-out: Leptochloa chinensis (60 g a.i./ha) inhibition rate", "value": 30, "unit": "%"}, {"measurement": "inhibition at 125 g/ha", "setting": "Leptochloa chinensis; read-out: Leptochloa chinensis (125 g a.i./ha) inhibition rate", "value": 80, "unit": "%"}, {"measurement": "inhibition at 30 g/ha", "setting": "Digitaria sanguinalis [8]", "value": 80, "unit": "%"}, {"measurement": "Amaranthus retroflexus (activity level)", "setting": "Amaranthus retroflexus; Table 2, dose 60 g a.i./ha", "value": "5 (Level 5: growth control rate is above 85%)"}, {"measurement": "Amaranthus retroflexus (activity level)", "setting": "Amaranthus retroflexus; Table 2, dose 125 g a.i./ha", "value": "5 (Level 5: growth control rate is above 85%)"}, {"measurement": "Stellaria media (activity level)", "setting": "Stellaria media; Table 2, dose 60 g a.i./ha", "value": "5 (Level 5: growth control rate is above 85%)"}, {"measurement": "Stellaria media (activity level)", "setting": "Stellaria media; Table 2, dose 125 g a.i./ha", "value": "5 (Level 5: growth control rate is above 85%)"}]}
